According to US11180510B2, “Xanthine derivatives and uses thereof as inhibitors of bromodomains of BET proteins” (Centre national de la recherche scientifique, priority 2017, dated 2021):
Entries after “also recorded” stand apart in the source; their conditions may differ.

Experiments:
Molm14 cells = experiment: Cell Titer-Glo cell viability assay, Molm14; type: cell-based; details: Homo sapiens, MOLM-14, 72 h, mean of three experiments, NA = IC50 > maximal concentration used
Summary of the method: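 Jurkat was grown in RPMI-1640 and Molm14 in MEMα, both with 10% FBS. Viability was read by CellTiter-Glo luminescence, and EC50 was obtained by non-linear regression of dose-response curves.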

c-Myc = c-Myc HTRF, Jurkat cell line; type: cell-based, human
Experimental: For additional evaluation of the effect of 43c in cell assays, an influence of the molecule on c-Myc expression was determined by c-Myc HTRF. c-Myc is a proto-oncogene that is often overexpressed in cancer. This leads to the increased expression of many genes, involved in cell proliferation, contributing to cancer development. Downregulation of c-Myc is considered as a promising approach for anticancer treatment.

Brd3(BD1) = Brd3(BD1) (Homo sapiens, UniProt Q15059); experiment: HTRF BET selectivity profile, Brd3(BD1); type: binding; design: GST tagged bromodomain proteins were purchased from BPS Bioscience; purchased BPS Bioscience
Brd3(BD1), sequence (Q15059 34-140 limits assumed): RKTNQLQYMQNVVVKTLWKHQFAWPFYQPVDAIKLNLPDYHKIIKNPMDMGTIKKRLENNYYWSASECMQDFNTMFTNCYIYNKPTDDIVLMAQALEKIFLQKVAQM

Brd4(BD2) = target: T1, Brd4(BD2) (Homo sapiens, UniProt O60885); experiment: HTRF BET selectivity profile, Brd4(BD2); type: binding
T1 construct: GST tagged bromodomain proteins were purchased from BPS Bioscience; purchased BPS Bioscience
Summary of the method: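 HTRF peptide-displacement assay with GST-tagged bromodomains and histone peptide, 0.5% final DMSO, incubated 3 h, 6 h or overnight at room temperature or 4 °C depending on bromodomain. 665/620 nm ratio read; inhibition scaled between DMSO and no-peptide controls, IC50 in triplicate.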

61 bromodomains = experiment: Thermal shift assay selectivity profile on 61 bromodomains; type: binding; details: compound at 25 μM, 25 µM
Experimental: (§1) FIG. 3. Thermal Shift Assay (TSA) of 43c. The evaluation was performed on 61 bromodomains. A cut-off at +/−3.5° C. was set.
(§2) TSA “Bromoscan” assays (Reaction Biology) were performed in 384 well RT-PCR plate (BioRad) with a total working volume of 15 μL. The “BromoMelT™, containing the 61 GST- or His-tagged-bromodomains, SYPRO® Orange and a mix compounds as control, was purchased from Reaction Biology. For each point, 3 μL of protein (1×) and 12 μL master mix (buffer+SYPRO® Orange+compound at 25 μM or control mix compounds or DMSO (0.5%)) were mixed in plate. The plate was placed in a CFX384 RTQPC (BioRad), and heated 10 seconds at 25° C., then the temperature was increased from 25° C. to 90° C., by increment of 0.5° C. every 30 seconds. The fluorescence was recorded using FRET filters.

Brd2(BD2) = target: T2, Brd2(BD2) (Homo sapiens, UniProt P25440); experiment: HTRF BET selectivity profile, Brd2(BD2); type: binding; details: read-out: Brd2(BD2) IC50
T2 construct: GST tagged bromodomain proteins were purchased from BPS Bioscience; purchased BPS Bioscience
T2 sequence (P25440 344-453 limits assumed): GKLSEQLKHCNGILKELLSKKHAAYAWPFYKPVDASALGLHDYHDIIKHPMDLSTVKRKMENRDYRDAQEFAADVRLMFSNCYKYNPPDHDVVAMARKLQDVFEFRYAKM

BRD4(BD1) [1] = target: T3, BRD4(BD1) (Homo sapiens, UniProt O60885); experiment: HTRF assay, BRD4(BD1)/histone peptide interaction; type: binding; design: made in house
BRD4(BD1) [2] = target: T3, BRD4(BD1); experiment: Thermal shift assay (BromoMELT), Brd4 (BD1); type: binding; details: compound at 25 μM, cut-off +/−3.5° C.
Experimental: as §1, §2

BRD4(BD1) [3] = target: T3, BRD4(BD1); experiment: BROMOscan assays; type: binding

IC50 (Molm14 cells): 6.1 µM
IC50 (Brd3(BD1)): 0.132 µM
Ratio 3-1 vs 3-2 (Brd3(BD1); selectivity Brd3(BD1) vs Brd3(BD2), HTRF IC50): 16
IC50 (Brd4(BD2)): 2.31 µM
IC50 (Brd2(BD2)): 1.22 µM
IC50 (BRD4(BD1) [1]; HTRF, mean of three experiments, NA = IC50 > 50 μM, read-out: Brd4(8D1) IC50): 0.074 µM
Ratio 4-1 vs 4-2 (BRD4(BD1) [1]; selectivity Brd4(BD1) vs Brd4(BD2), HTRF IC50): 31
ΔTm at 25 µM (BRD4(BD1) [2]): 5.25 °C
Kd (BRD4(BD1) [3]): 0.032 µM
selectivity ratio to the first bromodomain, BROMOscan (BRD4(BD1) [3]): up to 313 fold
Compound: CCn1cnc2c1c(=O)[nH]c(=O)n2Cc1ccc(CNS(=O)(=O)c2ccc(OC3CCOCC3)c(F)c2)cc1 [Compound 43c]
concentration at which c-Myc is downregulated, Jurkat (c-Myc): 2.4 µM
Bromodomain selectivity profile by thermal shift assay (61 bromodomains): stabilize only BET proteins; also recorded: stabilizes only BRD4 (BD1) and BRD3 (BD1)
